# How the values were obtained:
# Format in all cases: in vivo
# [1] = system: trigeminal nucleus caudalis wide dynamic range (WDR) neurons; assay: Electrical stimulation-induced responses of trigeminal nucleus caudalis WDR neurons; settings: rat
# Protocol: Male Sprague-Dawley rats (Charles River Laboratories) were anesthetized with isoflurane and used in the following experiments. In the anesthetized rats, single unit, extracellular recordings were performed in trigeminal nucleus caudalis while stimulating the ipsilateral facial skin with constant-current bipolar electrical stimulation. Epoxylate-insulated, tungsten microelectrodes (10 MOhm) were used under stereotaxic coordinate control.
# Shown are responses (action potentials per 30 stimuli) to repeated stimulation of a rat's face before oxytocin administration (pre-oxytocin). After administration with oxytocin at approximately 0.1 IU, responses were recorded every five minutes for 65 minutes. A second administration of oxytocin at the same dosage was administered at approximately 70 minutes after the first dose. The approximate site of the administration of the electrical stimulation is indicated by the black spot on a map of the rat's face (FIG. 3B).
# [2] = system: single pain sensing nerve cells in the trigeminal ganglion; assay: Nerve impulses of single trigeminal ganglion neurons in response to noxious laser pulses to the face; settings: rat, 10 nmoles applied to the nose, FIG. 2
# Protocol: Sprague-Dawley rats (Charles River Laboratories) were anesthetized with isofluorane and a platinum electrode was inserted transcranially into the trigeminal ganglion. Nerve impulses (action potential) were recorded from single pain sensing nerve cells in the trigeminal ganglion in response to application of noxious laser pulses to the face of the rats. After recording responses to several identical laser pulses, 10 nmoles of oxytocin was applied to the nose of the rats. Thereafter, identical laser pulses were once again applied and recorded.
# [3] = system: second-order neurons in the trigeminal nucleus caudalis; assay: Electrical stimulus-induced windup; settings: rat, intranasal 0.025 ml of 0.05 mg/ml
# Excerpt: Male Sprague-Dawley rats (Charles River Laboratories) were anesthetized with isoflurane and used in the following experiments. […] Needle electrodes were inserted subcutaneously at the site indicated in FIG. 5A by the black spot on the rat's head, and the skin was stimulated at 0.66 Hz, 2 msec duration, 3×C-fiber threshold for >25 times.
# [4] = system: trigeminal nucleus caudalis wide dynamic range (WDR) neurons; assay: Long-pulse laser-induced responses of trigeminal nucleus caudalis WDR neurons; settings: rat, intranasal 0.025 ml of 0.05 mg/ml
# Protocol: Male Sprague-Dawley rats (Charles River Laboratories) were anesthetized with isoflurane and used in the following experiments. In the anesthetized rats, single unit, extracellular recordings were performed in trigeminal nucleus caudalis while stimulating the ipsilateral facial skin with diode laser or constant-current bipolar electrical stimulation. Epoxylate-insulated, tungsten microelectrodes (10 MOhm) were used under stereotaxic coordinate control. […] Shown are responses (action potentials per second) to an 8 second-duration, 425 mA intensity laser stimulus to the site indicated by the black spot on a map of the rat's face (FIG. 4E).
# Sprague-Dawley rats = assay: Withdrawal latencies after noxious laser thermal stimulation of ears or hindpaws after intranasal administration; settings: rat, intranasal 10 nmoles/kg, tested from five minutes after final application
# Excerpt: One way to test activity of an analgesic agent in a rat model is by treatment-induced changes in latencies (times) of withdrawal in response to noxious heating of the skin, typically using an ear, the face or a hindpaw. Thus, application of coherent or non-coherent (non-laser) radiant heat to the ear, the face or hindpaw will elicit rapid withdrawal movements. […] Transmucosal or transdermal administration of analgesic agents to the trigeminal nerve to reduce trigeminal nerve-associated pain can be tested for regional and/or systemic analgesia. The rostral external part of a rat's ear is innervated by a branch of the mandibular nerve, itself a branch of the trigeminal nerve, thus after treatment an increase in latency to withdrawal time would indicate regional analgesia. […]
# Sprague-Dawley rats (Charles River Laboratories) were lightly anesthetized with urethane and placed with minimal restraint on a heating pad to maintain their body temperature at 37° C. […] Baseline withdrawal latencies were measured by delivering 4 separate stimuli with a resting period of approximately 15 minutes between each stimulus. […] As described above, testing sessions were videotaped and analyzed.
# [5] = intranasal approximately 0.1 IU, first dose
# [6] = second intranasal dose approximately 0.1 IU at approximately 70 minutes after the first
molecule,measurement,setting,value
"CC[C@H](C)[C@@H]1NC(=O)[C@H](Cc2ccc(O)cc2)NC(=O)[C@@H](N)CSSC[C@@H](C(=O)N2CCC[C@H]2C(=O)N[C@@H](CC(C)C)C(=O)NCC(N)=O)NC(=O)[C@H](CC(N)=O)NC(=O)[C@H](CCC(N)=O)NC1=O [Oxytocin, Cys-Tyr-Ile-Gln-Asn-Cys-Pro-Leu-Gly]",responses (action potentials per 30 stimuli) after first administration,"[1]; intranasal approximately 0.1 IU, electrical stimulation of face, FIG. 3A",significant reduction in responses
same,time after first administration at which reduction in responses began,[1]; [5],10 min
same,time post treatment until which reduction continued (responses then began to increase),[1]; [5],50 min
same,responses (action potentials per 30 stimuli) after second administration,[1]; [6],significant reduction in responses
same,time to reduction in responses after second administration,[1]; [6],≤ 10 min
same,"neuronal response (average nerve impulses per laser pulse), post- vs pre-treatment",[2],significantly (p<0.05) reduced
C[C@@H](O)[C@@H]1NC(=O)[C@H](CCCCN)NC(=O)[C@@H](Cc2c[nH]c3ccccc23)NC(=O)[C@H](Cc2ccccc2)NC(=O)[C@@H](NC(=O)[C@H](N)Cc2ccccc2)CSSC[C@@H](C(=O)N[C@H](CO)[C@@H](C)O)NC1=O [octreotide],reduction of total number of action potentials,[3]; 10 minutes after administration vs before,19.4%
same,total number of action potentials during the stimulation period,"[3]; 10 minutes after administration, 25 stimulations at 0.66 Hz, 506 before treatment",408
same,response five minutes post-treatment,"[4]; 8 second 425 mA laser stimulus, 5 minutes, FIG. 4B",no detectable reduction in response
same,response at 10 minutes post-treatment,"[4]; 8 second 425 mA laser stimulus, 10 minutes, baseline 42 spikes",5 spikes
same,reduction of response at 10 minutes post-treatment,[4]; 10 minutes vs pre-treatment baseline,88%
same,response 25 minutes post-treatment,"[4]; 25 minutes, FIG. 4D",recovered
Tyr-Gly-Gly-Phe-Met [met-enkephalin],regional analgesic effect (ear withdrawal latency),"Sprague-Dawley rats; laser to ears, FIG. 1A",achieved a regional analgesic effect in the head region
same,systemic analgesic effect (hindpaw withdrawal latency),"Sprague-Dawley rats; laser to hindpaws, FIG. 1B",without a systemic analgesic effect at the hindpaw

# — US8258096B2, “Therapy procedure for drug delivery for trigeminal pain” (The Board of Trustees of the Leland Stanford Junior …, priority 2005, dated 2012)
